What was measured:
[1] = tested on: AT11 (DNA, G4) TGGTGGTGGTTGTTGTGGTGGTGGTGGT; test: 1H NMR titration, NOESY; settings: 70 mM KCl, 20 mM potassium phosphate; pH 7.0, 90%/10% H2O/D2O, DMSO up to 3%
[2] = tested on: AT11 (DNA, G4) TGGTGGTGGTTGTTGTGGTGGTGGTGGT; test: fluorescence titration (ligand intrinsic emission); settings: 70 mM KCl, 20 mM potassium phosphate; for K d: per site
[3] = tested on: AT11 (DNA, G4) TGGTGGTGGTTGTTGTGGTGGTGGTGGT; test: CD melting at 262 nm; settings: 70 mM KCl, 20 mM potassium phosphate, pH 7.0, 2 μM DNA, 20 μM ligand
[4] = tested on: AT11 (DNA, G4) TGGTGGTGGTTGTTGTGGTGGTGGTGGT; test: 1H NMR titration; settings: 70 mM KCl, 20 mM potassium phosphate; pH 7.0, 90%/10% H2O/D2O; 3'-end G-quartet preferred

SMILES	binding [1]	K d [2] [µM]	ΔT m [3]	K d ([2]; pH 7.0, 20 °C, 2 μM ligand) [µM]	ΔT m ([3]; additional inflection at 87 °C)	K d ([2]; pH 7.0, 20 °C, 2 μM ligand, average over multiple binding events) [µM]	binding [4]	binding ([2]; pH 7.0, 20 °C, 2 μM ligand, alternating trend, not fittable)
CC[C@H]1C[C@@H]2C[C@H]3c4[nH]c5ccc(OC)cc5c4CCN(C2)[C@@H]13	yes	2.0 ± 0.4	+1 °C					
COc1cc2c(cc1OC)-c1c3c(cc4c1[C@H](C2)N(C)CC4)OCO3	yes			1.0 ± 0.7	+3 °C			
COc1ccc2c(c1O)-c1c3c(cc4c1[C@H](C2)N(C)CC4)OCO3			+1 °C			1.7 ± 0.3	yes	
CN1Cc2c(ccc3c2OCO3)[C@@H]2[C@H]1c1cc3c(cc1C[C@@H]2O)OCO3	yes		+1 °C					yes

— PMC12794142 (2025)
